{
  "source": "patent US20200113852A1",
  "about": "“METHODS OF PATIENT SELECTION AND TREATING TRXR- OR PRDX-OVEREXPRESSED CANCERS” (TRIACT THERAPEUTICS, INC., priority 2017, published 2020)",
  "key": {"[1]": {"molecular_target": "T1, TrxR1 (Homo sapiens, UniProt Q16881)", "T1 sequence (Q16881 1-499 isoform Q16881-5)": "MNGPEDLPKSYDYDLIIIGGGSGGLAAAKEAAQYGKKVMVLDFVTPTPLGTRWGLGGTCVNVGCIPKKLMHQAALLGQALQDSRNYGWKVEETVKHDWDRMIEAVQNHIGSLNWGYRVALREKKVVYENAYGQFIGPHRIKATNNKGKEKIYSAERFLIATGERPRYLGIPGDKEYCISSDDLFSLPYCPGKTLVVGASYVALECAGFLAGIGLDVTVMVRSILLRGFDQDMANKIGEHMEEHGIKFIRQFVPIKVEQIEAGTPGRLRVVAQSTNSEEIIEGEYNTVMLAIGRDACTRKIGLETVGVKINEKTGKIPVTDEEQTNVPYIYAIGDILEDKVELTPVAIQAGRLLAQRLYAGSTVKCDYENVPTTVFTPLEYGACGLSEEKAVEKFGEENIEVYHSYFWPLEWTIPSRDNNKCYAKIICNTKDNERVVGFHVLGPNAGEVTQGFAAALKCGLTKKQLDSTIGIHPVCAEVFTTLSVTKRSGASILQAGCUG", "assay": "Mass spectrometry of immunoprecipitated TrxR1 modified by Iniparib in HCT116 cells", "type": "cell-based", "design": "TrxR1 and TrxR2 were immunoprecipitated from octylglucoside cell extracts (12 mg proteins); endogenous in cells; host or cells: HCT116 (BSO-pretreated)", "conditions": "for TrxR1 modified on Sec residue: 100 μM, GSH-depleted HCT116", "experimental": "After separation by SDS-PAGE under reducing conditions and PageBlue® protein staining (Thermo scientific), bands of interest were excised, reduced with DTT, alkylated with iodoacetamide and in-gel digested with trypsin (Promega), according to the method of Shevchenko et al. (24). Peptides were extracted with 50 mM ammonium bicarbonate and 50% acetonitrile in 0.2% formic acid and analyzed by Nano LC-MS/MS after partial evaporation in a speed-vac concentrator. LC-MS/MS experiments were performed on an NanoAcquity UPLC (Waters) coupled to a hybrid LTQ Orbitrap Velos mass spectrometer (Thermo Fisher Scientific) equipped with a nanoelectrospray source. Tryptic digests were loaded onto a nanoAcquity UPLC Trap column (Symmetry C18, 5 μm, 180 μm×20 mm, Waters) and washed with 0.2% FA at 20 μl/min for 5 min. Peptides were then eluted on a C18 reverse-phase nanoAcquity column (BEH130 C18, 1.7 μm, 75 μm×250 mm, Waters) with a linear gradient of 7-30% solvent B (H2O/CH3CN/HCOOH, 10:90:0.2, by vol.) for 85 min, 30-90% solvent B for 10 min, and 90% solvent B for 5 min, at a flow rate of 250 nL/min. The mass spectrometer was operated in the data-dependent mode to automatically switch between MS and MS/MS acquisition. Survey full scan MS spectra (m/z 300-1,600) were acquired in the Orbitrap with a resolution of 60,000 at m/z 400. The AGC was set to 1×10^6 with a maximum injection time of 100 ms. The most intense ions (up to 20) were then isolated for fragmentation in the LTQ linear ion trap with normalized collision energy of 28% at the default activation q of 0.25 with an AGC of 5×10^3 and a maximum injection time of 200 ms. The dynamic exclusion time window was set to 80 s. LC-MS/MS data, acquired using the Xcalibur software (Thermo-Fisher Scientific), were processed using a homemade Visual Basic program software developed using XRawfile libraries (distributed by Thermo-Fisher Scientific) to generate a MS/MS peak list (MGF file) which will be used for database searching. This MGF file contained the exact parent mass and the retention time (RT) associated with each MS/MS spectrum. The exact parent mass is the 12C isotope ion mass of the most intense isotopic pattern detected on the high resolution Orbitrap MS parallel scan and included in the MS/MS selection window. The RT is issued from the LTQ-MS/MS scan. Database searches were done using our internal MASCOT server (version 2.1, matrix Science) using the SwissProt human database. […] The precursor mass tolerance was set to 5 ppm and the fragment ion tolerance was set to 0.5 Da. The number of missed cleavage sites for trypsin was set to 3. Mascot result files (“.dat” files) were imported into Scaffold software. Scaffold (version 3.4.5, Proteome software Inc., Portland, Oreg.) was used to validate MS/MS based peptide and protein identifications. Queries were also used for XTandem parallel Database Search. The compiled results of both database searches were exported."}, "[2]": {"tested_on": "newly diagnosed glioblastoma multiforme (GBM)", "assay": "Phase II clinical trial GBM, overall survival", "type": "in vivo, human", "source_text": "For assessing the efficacy of the treatment in terms of overall survival, the overall failure rate were estimated and compared to the failure rate of 0.6 per-person year of follow-up regarding the Phase III trial done by Stupp et al. in the same patient population treated with RT plus concomitant and adjuvant temozolomide.\nThe primary endpoint was death due to all causes. The survival time is defined from time of histological diagnosis to death occurrence. The overall failure rate was expressed as hazard of failure per person-year of follow-up. The total patient population for this part of the study was defined as all patients who have met the eligibility criteria, not met ineligibility criteria, and signed patient informed consent.\nIt yield above 90% power to detect a 30% reduction in hazard rate with observed hazard ratio of 0.7 (0.42 vs. 0.6) at an alpha level of 0.1 to be significant. The overall failure rate was estimated by dividing the number of events (deaths) by the total exposure time in the study cohort along with 95% confidence intervals. Survival probability and median time of survival was calculated using Kaplan-Meier method."}},
  "data": [
    {"smiles": "NC(=O)c1ccc(I)c([N+](=O)[O-])c1", "note": "[Iniparib, 4-iodo-3-nitrobenzamide]", "values": [
      {"measurement": "TrxR1 modified on both adjacent Cys and Sec residues", "setting": "[1]; 1 h", "result": 0.8, "unit": "%"},
      {"measurement": "TrxR1 modified on Sec residue", "setting": "[1]; 1 h", "result": 50, "unit": "%"},
      {"measurement": "5 other TrxR1 peptides modified on Cys residues, altogether", "setting": "[1]; 4 h", "result": "less than 7 % of the total protein"},
      {"measurement": "TrxR1 modified on both adjacent Cys and Sec residues", "setting": "[1]; 4 h", "result": 4.7, "unit": "%"},
      {"measurement": "TrxR1 modified on Sec residue", "setting": "[1]; 4 h", "result": 67, "unit": "%"},
      {"measurement": "2 Year Survival", "setting": "[2]; Phase 2, N = 76", "result": 42.1, "unit": "% patients"},
      {"measurement": "3 Year Survival", "setting": "[2]; Phase 2, N = 76", "result": 23.7, "unit": "% patients"},
      {"measurement": "reduced HR versus Stupp et al 2005", "setting": "[2]; single arm phase 2", "result": "≥ 25", "unit": "%"}
    ]}
  ]
}
